Measurements published in US12071434B2, “Heterocyclic compound” (Takeda Pharmaceutical Company Limited, priority 2018, dated 2024).

Target: T1, human orexin type 2 receptor (Homo sapiens, UniProt O43614)
T1 construct: expressed in transfected cells
T1 sequence (O43614 1-444): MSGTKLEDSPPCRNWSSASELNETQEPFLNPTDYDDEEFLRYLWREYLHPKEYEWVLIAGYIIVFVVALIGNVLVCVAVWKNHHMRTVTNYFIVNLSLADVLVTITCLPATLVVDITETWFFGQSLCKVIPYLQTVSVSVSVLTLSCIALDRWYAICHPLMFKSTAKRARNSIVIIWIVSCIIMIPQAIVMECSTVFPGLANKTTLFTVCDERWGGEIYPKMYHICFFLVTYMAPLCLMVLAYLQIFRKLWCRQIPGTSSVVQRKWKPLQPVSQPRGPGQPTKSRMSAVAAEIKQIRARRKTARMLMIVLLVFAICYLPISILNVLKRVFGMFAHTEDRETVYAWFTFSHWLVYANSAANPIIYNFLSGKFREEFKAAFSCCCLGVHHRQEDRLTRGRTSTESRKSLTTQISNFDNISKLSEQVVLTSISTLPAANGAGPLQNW
Test: Measurement of orexin type 2 receptor agonist activity (calcium fluorescence, Fluo-4 AM, FDSS) in CHO cells forcibly expressing human OX2 receptor
Type: cell-based
Conditions: test compound 3 μM, DMSO = 0%, orexin A (human) 10 nM = 100%
Description: To obtain a cell clone stably expressing human orexin type 2 receptor, human orexin type 2 receptor cDNA was inserted into pcDNA3.1(+) plasmid vector (Invitrogen), and a plasmid DNA for expression of human orexin type 2 receptor (pcDNA3.1(+)/hOX2R) was cloned. The plasmid DNA was introduced into CHO-dhfr cell by an electroporation method, and human orexin type 2 receptor expressing clone cells were obtained by limiting dilution method by using G418 drug resistance as a selection marker.
CHO cells forcibly expressing human OX2 receptor were seeded in each well of 384 well black transparent bottom plate (BD Falcon) at 7,500 cells/well, and cultured for one day in a 5% CO2 incubator at 37° C. After removal of the medium in the cell plate, assay buffer A containing a calcium indicator (HBSS (Thermo Fisher Scientific), 20 mM HEPES (Thermo Fisher Scientific), 0.1% BSA (Sigma-Aldrich), 2.5 μg/mL Fluo-4 AM (DOJINDO Chemical), 0.08% Pluronic F127 (DOJINDO Chemical), 1.25 mM probenecid (DOJINDO Chemical)) was added at 30 μL/well. The plate was stood for 30 min in a 5% CO2 incubator at 37° C., and further stood at room temperature for 30 min. A test compound prepared by diluting with assay buffer B (HBSS, 20 mM HEPES, 0.1% BSA) was added at 10 μL/well, and the fluorescence value was measured by FDSSpCELL (Hamamatsu Photonics K.K.) every one sec for 1 min, and thereafter every two sec for 1 min 40 sec. The activity (%) of the test compound was calculated assuming that variation in the fluorescence value when DMSO was added instead of the test compound was 0%, and variation in the fluorescence value when orexin A (human) (PEPTIDE INSTITUTE, INC.) was added at the final concentration of 10 nM was 100%.

CC(C)n1cnc2c(c1=O)[C@@H](Cc1csc(-c3ccccc3F)n1)[C@@H](NS(=O)(=O)C1(F)CC1)CC2 (relative stereo) [Example 156, rel-1-fluoro-N-[(5R,6S)-5-{[2-(2-fluorophenyl)-1,3-thiazol-4-yl]methyl}-4-oxo-3-(propan-2-yl)-3,4,5,6,7,8-hexahydroquinazolin-6-yl]cyclopropane-1-sulfonamide]
0X2R agonist activity (3 μM, %): 93%

CC(C)n1cnc2c(c1=O)[C@@H](Cc1csc(-c3ccccc3)n1)[C@@H](NS(=O)(=O)C1CC1)CC2 (relative stereo) [Example 169, rel-N-[(5R,6S)-4-oxo-5-[(2-phenyl-1,3-thiazol-4-yl)methyl]-3-(propan-2-yl)-3,4,5,6,7,8-hexahydroquinazolin-6-yl]cyclopropanesulfonamide]
0X2R agonist activity (3 μM, %): 91%

CC1OC[C@@H]2CC[C@H](NS(C)(=O)=O)[C@H](Cc3cccc(-c4cccc(F)c4)c3)N2C1=O (relative stereo) [Example 140, rel-N-{(6S,7S,9aS)-6-[(3′-fluoro[1,1′-biphenyl]-3-yl)methyl]-3-methyl-4-oxooctahydropyrido[2,1-c][1,4]oxazin-7-yl}methanesulfonamide]
0X2R agonist activity (3 μM, %): 94%

CC(C)n1cnc2c(c1=O)[C@@H](Cc1ccc(F)c(-c3ccccc3)c1)[C@@H](NS(C)(=O)=O)CC2 (relative stereo) [Example 150, rel-N-[(5R,6S)-5-[(6-fluoro[1,1′-biphenyl]-3-yl)methyl]-4-oxo-3-(propan-2-yl)-3,4,5,6,7,8-hexahydroquinazolin-6-yl]methanesulfonamide]
0X2R agonist activity (3 μM, %): 98%

CS(=O)(=O)N[C@H]1CCc2ccc(Cl)c(=O)n2[C@H]1Cc1cccc(-c2ccccc2)c1 (racemic) [Example 15, rac-N-{(3S,4S)-4-[([1,1′-biphenyl]-3-yl)methyl]-7-chloro-6-oxo-1,3,4,6-tetrahydro-2H-quinolizin-3-yl}methanesulfonamide]
0X2R agonist activity (3 μM, %): 106%

CCS(=O)(=O)N[C@H]1CCc2ncn(C(C)C)c(=O)c2[C@H]1Cc1cccc(-c2cccc(C)c2F)c1 (racemic) [Example 83, rac-N-[(5R,6S)-5-[(2′-fluoro-3′-methyl[1,1′-biphenyl]-3-yl)methyl]-4-oxo-3-(propan-2-yl)-3,4,5,6,7,8-hexahydroquinazolin-6-yl]ethanesulfonamide]
0X2R agonist activity (3 μM, %): 100%

CC(C)n1cnc2c(c1=O)[C@@H](Cc1cccc(-c3cccc(F)c3)c1)[C@@H](NS(=O)(=O)C1CC1)CC2 [Example 188, N-[(5R,6S)-5-[(3′-fluoro[1,1′-biphenyl]-3-yl)methyl]-4-oxo-3-(propan-2-yl)-3,4,5,6,7,8-hexahydroquinazolin-6-yl]cyclopropanesulfonamide]
0X2R agonist activity (3 μM, %): 107%

CCn1ccc2c(c1=O)[C@@H](Cc1cccc(-c3ccccc3)c1F)[C@@H](NS(C)(=O)=O)CC2=O (racemic) [Example 163, rac-N-{(7S,8R)-2-ethyl-8-[(2-fluoro[1,1′-biphenyl]-3-yl)methyl]-1,5-dioxo-1,2,5,6,7,8-hexahydroisoquinolin-7-yl}methanesulfonamide]
0X2R agonist activity (3 μM, %): 94%

CC(C)n1cnc2c(c1=O)[C@@H](Cc1cccc(-c3cccc(C(F)F)c3F)c1F)[C@@H](NS(C)(=O)=O)CC2 (relative stereo) [Example 152, rel-N-[(5R,6S)-5-{[3′-(difluoromethyl)-2,2′-difluoro[1,1′-biphenyl]-3-yl]methyl}-4-oxo-3-(propan-2-yl)-3,4,5,6,7,8-hexahydroquinazolin-6-yl]methanesulfonamide]
0X2R agonist activity (3 μM, %): 94%

CC1OCC2CCC(NS(C)(=O)=O)C(Cc3cccc(-c4cccc(F)c4)c3)N2C1=O (racemic) [Example 165, rac-N-{(3R,6S,7S,9aR)-6-[(3′-fluoro[1,1′-biphenyl]-3-yl)methyl-3-methyl-4-oxooctahydropyrido[2,1-c][1,4]oxazin-7-yl}methanesulfonamide]
0X2R agonist activity (3 μM, %): 97%

CS(=O)(=O)N[C@H]1CCc2c(Cl)nc(Cl)c(=O)n2[C@H]1Cc1cccc(-c2ccccc2)c1 (racemic) [Example 61, rac-N-{(6S,7S)-6-[([1,1′-biphenyl]-3-yl)methyl]-1,3-dichloro-4-oxo-6,7,8,9-tetrahydro-4H-pyrido[1,2-a]pyrazin-7-yl}methanesulfonamide]
0X2R agonist activity (3 μM, %): 51%

CC(C)N1CNC2=C(C1=O)[C@@H](Cc1cccc(-c3ccccc3)c1)[C@@H](NS(C)(=O)=O)CC2(F)F (racemic) [Example 162, rac-N-[(5R,6S)-5-[([1,1′-biphenyl]-3-yl)methyl]-8,8-difluoro-4-oxo-3-(propan-2-yl)-1,2,3,4,5,6,7,8-octahydroquinazolin-6-yl]methanesulfonamide]
0X2R agonist activity (3 μM, %): 101%

CCn1c(C)nc2c(c1=O)[C@@H](Cc1cccc(-c3cccc(C)c3)c1)[C@@H](NS(C)(=O)=O)CC2 (racemic) [Example 78, rac-N-{(5R,6S)-3-ethyl-2-methyl-5-[(3′-methyl[1,1′-biphenyl]-3-yl)methyl]-4-oxo-3,4,5,6,7,8-hexahydroquinazolin-6-yl}methanesulfonamide]
0X2R agonist activity (3 μM, %): 100%

Cc1ccc2n(c1=O)C(Cc1ccc(-c3ccccc3)cc1)C(NS(C)(=O)=O)CC2 (racemic) [Example 214, rac-N-{(3S,4S)-4-[([1,1′-biphenyl]-4-yl)methyl]-7-methyl-6-oxo-1,3,4,6-tetrahydro-2H-quinolizin-yl}methanesulfonamide]
0X2R agonist activity (3 μM, %): 52%

CCS(=O)(=O)N[C@H]1CCc2ncn(C(C)C)c(=O)c2[C@H]1Cc1cccc(-c2cccc(F)c2)c1F [Example 170, N-[(5R,6S)-5-[(2,3′-difluoro[1,1′-biphenyl]-3-yl)methyl]-4-oxo-3-(propan-2-yl)-3,4,5,6,7,8-hexahydroquinazolin-6-yl]ethanesulfonamide]
0X2R agonist activity (3 μM, %): 87%

CCn1c(C)nc2c(c1=O)C(Cc1cccc(-c3cc(F)cc(F)c3)c1)C(NS(C)(=O)=O)CC2 (racemic) [Example 75]
0X2R agonist activity (3 μM, %): 92%

CCc1ccc2n(c1=O)C(Cc1cccc(-c3cccc(F)c3)c1F)C(NC(=O)C(=O)N(C)C)CC2 (racemic) [Example 39, rac-N~2~-{(3S,4S)-4-[2,3′-difluoro[1,1′-biphenyl]-3-yl)methyl]-7-ethyl-6-oxo-1,3,4,6-tetrahydro-2H-quinolizin-3-yl}-N~1~,N~1~-dimethylethanediamide]
0X2R agonist activity (3 μM, %): 89%

CC(C)n1cnc2c(c1=O)[C@@H](Cc1csc(-c3cccc(F)c3F)n1)[C@@H](NS(C)(=O)=O)CC2 (relative stereo) [Example 154, rel-N-[(5R,6S)-5-{[2-(2,3-difluorophenyl)-1,3-thiazol-4-yl]methyl}-4-oxo-3-(propan-2-yl)-3,4,5,6,7,8-hexahydroquinazolin-6-yl]methanesulfonamide]
0X2R agonist activity (3 μM, %): 100%

CC(C)n1cnc2c(c1=O)[C@@H](Cc1cccc(-c3cccc(F)c3)c1F)[C@@H](NS(=O)(=O)C1(F)CC1)CC2 [Example 181, N-[(5R,6S)-5-[(2,3′-difluoro[1,1′-biphenyl]-3-yl)methyl]-4-oxo-3-(propan-2-yl)-3,4,5,6,7,8-hexahydroquinazolin-6-yl]-1-fluorocyclopropane-1-sulfonamide]
0X2R agonist activity (3 μM, %): 91%

CCS(=O)(=O)N[C@H]1CCc2ncn(C(C)C)c(=O)c2[C@H]1Cc1cccc(-c2cccc(F)c2)c1 (racemic) [Example 81, rac-N-[(5R,6S)-5-[(3′-fluoro[1,1′-biphenyl]-3-yl)methyl]-4-oxo-3-(propan-2-yl)-3,4,5,6,7,8-hexahydroquinazolin-6-yl]ethanesulfonamide]
0X2R agonist activity (3 μM, %): 96%

Cc1ccc2n(c1=O)[C@@H](Cc1cccc(-c3ccccc3)c1)[C@@H](NS(C)(=O)=O)CC2 (relative stereo) [Example 10, rel-N-{(3S,4S)-4-[([1,1′-biphenyl]-3-yl)methyl]-7-methyl-6-oxo-1,3,4,6-tetrahydro-2H-quinolizin-3-yl}methanesulfonamide]
0X2R agonist activity (3 μM, %): 101%

CC(C)n1cnc2c(c1=O)[C@@H](Cc1cccc(-c3ccccc3)c1)[C@@H](NS(=O)(=O)CF)CC2 (relative stereo) [Example 145, rel-N-[(5R,6S)-5-[([1,1′-biphenyl]-3-yl)methyl]-4-oxo-3-(propan-2-yl)-3,4,5,6,7,8-hexahydroquinazolin-6-yl]-1-fluoromethanesulfonamide]
0X2R agonist activity (3 μM, %): 92%
